Laboratory results reported in patent US20260285816A1, “Piperazinyl-Modified Quinazolinyl-Aryl Urea Derivative, And Preparation Method And Use Thereof” (Guangxi Normal University, priority 2025, published 2026).

Columns and labels:
[1] = background; cited from earlier work
[2] = tested on: human pancreatic cancer BxPC-3; test: BxPC-3 tumor-bearing nude mouse model; type: in vivo, nude mice
[3] = background; cited from earlier work; remark: listed apart in the source
UM-UC-3 cells = test: CCK-8 anti-proliferative assay, UM-UC-3; type: cell-based, human; conditions: Homo sapiens, UMUC3; Table 6; co-incubated 48 h; read-out: Anti-proliferative activity (IC50 ± standard deviation) UM-UC-3
Summary of the method: (§1)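 Cells seeded at 5,000/well and grown at 37° C., 5% CO2 to 70% confluency, then treated with compound at final 1, 2, 4, 6, 8, 12, 16, 24 and 30 μM in triplicate.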

[4] = tested on: immortalized ureteral epithelial cells (SV-HUC-1); test: CCK-8 anti-proliferative assay, normal cells SV-HUC-1; type: cell-based, human; conditions: Homo sapiens, SV-HUC1; Table 9; normal cells; co-incubated 48 h; read-out: Anti-proliferative activity (IC50 ± standard deviation) SV-HUC-1
Summary of the method: as §1

143B cells = test: CCK-8 anti-proliferative assay, 143B; type: cell-based, human; conditions: Homo sapiens, 143B; Table 7; co-incubated 48 h; read-out: Anti-proliferative activity (IC50 ± standard deviation) 143B
Summary of the method: (§2)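 Logarithmic-phase cells are plated at 5,000 cells per well and incubated at 37° C. with 5% CO2. At 70% confluency, compound is added at nine final concentrations from 1 to 30 μM. After exposure, CCK-8 is added and OD at 450 nm measured to calculate IC50.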

PANC-1 cells = test: CCK-8 anti-proliferative assay, PANC-1; type: cell-based, human; conditions: Homo sapiens, PANC-1; Table 7; co-incubated 48 h; read-out: Anti-proliferative activity (IC50 ± standard deviation) PANC-1
Summary of the method: as §2

MG-63 cells = test: CCK-8 anti-proliferative assay, MG-63; type: cell-based, human; conditions: Homo sapiens, MG-63; Table 7; co-incubated 48 h; read-out: Anti-proliferative activity (IC50 ± standard deviation) MG-63
Summary of the method: as §2

SK-OV-3 cells = test: CCK-8 anti-proliferative assay, SK-OV-3; type: cell-based, human; conditions: Homo sapiens, SK-OV-3; Table 9; co-incubated 48 h; read-out: Anti-proliferative activity (IC50 ± standard deviation) SK-OV-3
Summary of the method: as §1

BxPC-3 cells = test: CCK-8 anti-proliferative assay, BxPC-3; type: cell-based, human
Summary of the method: as §2

SMILES	Water solubility [1]	Mice manifesting anorexia and emaciation after 4 doses ([2]; 24 mg/kg oral gavage) [%]	Nude mice that died within 16 d ([2]; 24 mg/kg oral gavage, n=6)	Toxicity observations ([2]; oral gavage, gemcitabine 24 mg/kg, 8-2h 12, 24, 36 mg/kg)	Elimination/metabolism [3]	Oral bioavailability [3]	IC50 (UM-UC-3 cells) [µM]	IC50 [4] [µM]	IC50 (143B cells) [µM]	IC50 (PANC-1 cells) [µM]	IC50 (MG-63 cells) [µM]	IC50 (SK-OV-3 cells) [µM]	Sensitivity of BxPC-3 / anti-proliferative activity against BxPC-3, in words (BxPC-3 cells)	IC50 (BxPC-3 cells; Homo sapiens, BXPC-3, Table 7, co-incubated 48 h, read-out: Anti-proliferative activity (IC50 ± standard deviation) BxPC-3) [µM]
COc1cc(OC)cc(N(CCNC(C)C)c2ccc3ncc(-c4cnn(C)c4)nc3c2)c1 [Erda, erdafitinib]	poor water solubility	–	–	–	–	–	–	–	–	–	–	–	–	–
Nc1ccn([C@@H]2O[C@H](CO)[C@@H](O)C2(F)F)c(=O)n1 [Gem, gemcitabine, reference compound]	–	50	3 of 6	significant gastrointestinal reactions	–	–	–	–	–	–	–	–	–	–
CNC(=O)c1cc(Oc2ccc(NC(=O)Nc3ccc(Cl)c(C(F)(F)F)c3)cc2)ccn1 [Sora, sorafenib, reference compound]	poor aqueous solubility	–	–	–	rapid elimination/metabolism	low oral bioavailability	14.3 ± 1.51	10.8 ± 0.54	22.7 ± 1.59	8.13 ± 0.56	27.2 ± 1.89	13.8 ± 0.78	weak anti-proliferative activity	13.4 ± 1.27
